Data taken from EP3283483B1, “CRYSTALLINE ELIGLUSTAT HYDROCHLORIDE” (Sandoz AG, priority 2015, dated 2016).
Where a name gives a salt, the structure may show the parent alone.

Experiments:
[1] = Storage stability of the crystalline form, XRPD analysis after storage; format: physicochemical; details: stored for one week at 40°C / 75% relative humidity
Description: XRPD analyses were performed on crystalline eliglustat hydrochloride from example 1 using a Panalytical Xpert Pro diffractometer equipped with a Cu X-ray tube and a Pixcel detector system. The isothermal samples were analysed in transmission mode and held between low density polyethylene films. The following XRPD program was used: range 3-40°2θ, step size 0.013°, counting time 99sec, ∼22min run time.
Crystalline eliglustat hydrochloride from example 1 was stored for one week at 40°C / 75% relative humidity.

[2] = Aqueous solubility determined gravimetrically by slurrying in water; format: physicochemical
Description: Aqueous solubility was determined gravimetrically by slurrying Eliglustat hydrochloride from example 1 in water at 22°C. The pH of Eliglustat HCl in water was 7.6. A filtered aliquot was transferred to a pre-weighed vial and the solution evaporated.

solubility ([2]; pH 7.6, thermodynamic from solid, water, 22°C, gravimetric, pH in water 7.6): 33 mg/mL
pH of Eliglustat HCl in water ([2]; slurry in water at 22°C): 7.6
SMILES: CCCCCCCC(=O)N[C@H](CN1CCCC1)[C@H](O)c1ccc2c(c1)OCCO2 [Eliglustat hydrochloride, (1R,2R)-octanoic acid[2-(2',3'-dihydro-benzo[1,4]dioxin-6'-yl)-2-hydroxy-1-pyrrolidin-1-ylmethyl-ethyl]-amide]
stability of crystalline form after storage (XRPD) [1]: remained stable with regard to its crystalline form
